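Growth conditions: 96-well plates. Treatment: test compound, 48 hours, 5 concentrations. Analysis: linear interpolation between bracketing concentrations; unreached endpoints set to highest concentration. The concentration for 50% growth inhibition is given as GI50.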 Calls of active or inactive are those of the source. Cut-off read from the data, not from the text of the source: active = GI50 up to about 1.1 µM and inactive = higher.
How the values were obtained:
Assay in all cases: growth of human tumour cells (NCI), 48 h
ACHN = test system: ACHN
SF-295 = test system: SF-295
Hs-578T = test system: Hs-578T
Malme-3M = test system: Malme-3M
HT-29 = test system: HT-29
M14 = test system: M14
SN12C = test system: SN12C
A549 = test system: A549
COLO 205 = test system: COLO 205
SNB-75 = test system: SNB-75
T47D = test system: T47D
DU-145 = test system: DU-145
SF-268 = test system: SF-268
UACC-257 = test system: UACC-257
OVCAR-8 = test system: OVCAR-8
OVCAR-3 = test system: OVCAR-3
NCI-H460 = test system: NCI-H460
MDA-MB-231 = test system: MDA-MB-231
MOLT-4 = test system: MOLT-4
SK-OV-3 = test system: SK-OV-3
IGROV-1 = test system: IGROV-1
SK-MEL-5 = test system: SK-MEL-5
SK-MEL-2 = test system: SK-MEL-2
NCI-H522 = test system: NCI-H522
LOX IMVI = test system: LOX IMVI
SR = test system: SR
SW-620 = test system: SW-620
EKVX = test system: EKVX
OVCAR-4 = test system: OVCAR-4
PC-3 = test system: PC-3
HOP-62 = test system: HOP-62
HOP-92 = test system: HOP-92
UACC-62 = test system: UACC-62
786-0 = test system: 786-0
MDA-N = test system: MDA-N
HCT-15 = test system: HCT-15
NCI/ADR-RES = test system: NCI/ADR-RES
MDA-MB-435 = test system: MDA-MB-435
NCI-H226 = test system: NCI-H226
SK-MEL-28 = test system: SK-MEL-28
NCI-H23 = test system: NCI-H23
UO-31 = test system: UO-31
CAKI-1 = test system: CAKI-1
A498 = test system: A498
MCF7 = test system: MCF7
KM12 = test system: KM12
K562 = test system: K562
SF-539 = test system: SF-539
U-251 = test system: U-251
RXF 393 = test system: RXF 393
SNB-19 = test system: SNB-19
CCRF-CEM = test system: CCRF-CEM
HCT-116 = test system: HCT-116
RPMI-8226 = test system: RPMI-8226
TK-10 = test system: TK-10
HL-60 = test system: HL-60
HCC 2998 = test system: HCC 2998

COc1cc(/C=C2\CN(C)CC3=C2N=C(S)NC3c2cc(OC)c(OC)c(OC)c2)cc(OC)c1OC (stereo not given)
GI50 (ACHN): 91.2 µM (inactive) | GI50 (SF-295): 65.5 µM (inactive) | GI50 (Hs-578T): 30.5 µM (inactive) | GI50 (Malme-3M): > 100 µM (inactive) | GI50 (HT-29): 67.9 µM (inactive) | GI50 (M14): 51.2 µM (inactive) | GI50 (SN12C): 67.9 µM (inactive) | GI50 (A549): 49.9 µM (inactive) | GI50 (COLO 205): 79.8 µM (inactive) | GI50 (SNB-75): 28.6 µM (inactive) | GI50 (T47D): > 100 µM (inactive) | GI50 (DU-145): > 100 µM (inactive) | GI50 (SF-268): 94.4 µM (inactive) | GI50 (UACC-257): > 100 µM (inactive) | GI50 (OVCAR-8): 83.2 µM (inactive) | GI50 (OVCAR-3): > 100 µM (inactive) | GI50 (NCI-H460): 54.5 µM (inactive) | GI50 (MDA-MB-231): 61.9 µM (inactive) | GI50 (MOLT-4): 57.4 µM (inactive) | GI50 (SK-OV-3): > 100 µM (inactive) | GI50 (IGROV-1): 71.8 µM (inactive) | GI50 (SK-MEL-5): 17.9 µM (inactive) | GI50 (SK-MEL-2): > 100 µM (inactive) | GI50 (NCI-H522): 54.7 µM (inactive) | GI50 (LOX IMVI): 36.2 µM (inactive) | GI50 (SR): > 100 µM (inactive) | GI50 (SW-620): > 100 µM (inactive) | GI50 (EKVX): 32.6 µM (inactive) | GI50 (OVCAR-4): 56 µM (inactive) | GI50 (PC-3): 38.3 µM (inactive) | GI50 (HOP-62): 69.7 µM (inactive) | GI50 (HOP-92): > 100 µM (inactive) | GI50 (UACC-62): 20.9 µM (inactive) | GI50 (786-0): 39.2 µM (inactive) | GI50 (MDA-N): 50.2 µM (inactive) | GI50 (HCT-15): 80.2 µM | GI50 (NCI/ADR-RES): > 100 µM (inactive)

Cc1cccc(Nc2cnc(N)nc2N)c1
GI50 (MDA-MB-435): > 100 µM (inactive) | GI50 (ACHN): > 100 µM (inactive) | GI50 (NCI-H226): > 100 µM (inactive) | GI50 (SF-295): > 100 µM (inactive) | GI50 (Malme-3M): > 100 µM (inactive) | GI50 (HT-29): > 100 µM (inactive) | GI50 (M14): > 100 µM (inactive) | GI50 (SN12C): > 100 µM (inactive) | GI50 (SK-MEL-28): > 100 µM (inactive) | GI50 (A549): > 100 µM (inactive) | GI50 (COLO 205): > 100 µM (inactive) | GI50 (SNB-75): 83 µM (inactive) | GI50 (NCI-H23): > 100 µM (inactive) | GI50 (T47D): > 100 µM (inactive) | GI50 (UO-31): 90.2 µM (inactive) | GI50 (CAKI-1): > 100 µM (inactive) | GI50 (DU-145): > 100 µM (inactive) | GI50 (A498): > 100 µM (inactive) | GI50 (MCF7): > 100 µM (inactive) | GI50 (KM12): > 100 µM (inactive) | GI50 (K562): > 100 µM (inactive) | GI50 (UACC-257): > 100 µM (inactive) | GI50 (SF-539): > 100 µM (inactive) | GI50 (OVCAR-8): > 100 µM (inactive) | GI50 (OVCAR-3): > 100 µM (inactive) | GI50 (U-251): > 100 µM (inactive) | GI50 (RXF 393): 98.9 µM (inactive) | GI50 (MDA-MB-231): > 100 µM (inactive) | GI50 (MOLT-4): > 100 µM (inactive) | GI50 (SK-OV-3): > 100 µM (inactive) | GI50 (IGROV-1): > 100 µM (inactive) | GI50 (SK-MEL-5): > 100 µM (inactive) | GI50 (SK-MEL-2): > 100 µM (inactive) | GI50 (NCI-H522): > 100 µM (inactive) | GI50 (SNB-19): > 100 µM (inactive) | GI50 (CCRF-CEM): > 100 µM (inactive) | GI50 (LOX IMVI): > 100 µM (inactive) | GI50 (SW-620): > 100 µM (inactive) | GI50 (EKVX): > 100 µM (inactive) | GI50 (HCT-116): > 100 µM (inactive) | GI50 (OVCAR-4): > 100 µM (inactive) | GI50 (PC-3): > 100 µM (inactive) | GI50 (RPMI-8226): > 100 µM (inactive) | GI50 (TK-10): > 100 µM (inactive) | GI50 (HOP-62): > 100 µM (inactive) | GI50 (HOP-92): > 100 µM (inactive) | GI50 (UACC-62): > 100 µM (inactive) | GI50 (786-0): > 100 µM (inactive) | GI50 (HL-60): > 100 µM (inactive) | GI50 (HCC 2998): > 100 µM (inactive) | GI50 (MDA-N): > 100 µM (inactive) | GI50 (HCT-15): > 100 µM | GI50 (NCI/ADR-RES): > 100 µM (inactive)

— ChEMBL document CHEMBL1201862, “PubChem BioAssay data set” (2004)
